Values quoted from earlier work in US7317127B2, “Process for the optical resolution and recycling of tomoxetine” (Teva Pharmaceutical Fine Chemicals S.r.l, priority 2004, dated 2008).

Conditions: as disclosed in U.S. Pat. No. 4,018,895, EP 0 052 492, EP 0 721 777

Q: With `CNCC[C@@H](Oc1ccccc1C)c1ccccc1` [Atomoxetine, (R)(−)-N-methyl-3-(2-methylphenoxy)-3-phenylpropylamine] as the molecule, how does the “effectiveness relative to the (+)-enantiomer” value (versus (S)-(+)-tomoxetine) read?
A: about nine times more effective than the (+)-enantiomer

Q: What about the “effectiveness relative to the racemic mixture” value (versus racemic tomoxetine) of the same molecule?
A: about twice as effective as the racemic mixture
